Assay results taken from US8420630B2 (Boehringer Ingelheim Pharma GmbH & Co. KG, priority 2001, dated 2013).

System: not given
Test: not given
Conditions: not given

SMILES | melting point
O=C(NCCNc1nc(Nc2ccc(Cl)c(Cl)c2)ncc1C(F)(F)F)c1ccccc1 [Example 7, N-(2-[2-(3,4-dichloro-phenylamino)-5-trifluoromethyl-pyrimidin-4-ylamino]-ethyl)-benzamide] | 160 to 162 °C
CC(=O)NCCNc1nc(Nc2ccc(C(=O)O)cc2)ncc1C(C)C [Example 6, 4-[4-(2-acetylamino-ethylamino)-5-isopropyl-pyrimidin-2-ylamino]-benzoic acid] | 275 to 278 °C

Biological target: T1, CDK1/cyclinB1 (Homo sapiens, UniProt P06493)
T1 construct: made in house; host or cells: High Five insect cells (Trichoplusia ni), baculovirus coinfection
T1 sequence (P06493 whole entry): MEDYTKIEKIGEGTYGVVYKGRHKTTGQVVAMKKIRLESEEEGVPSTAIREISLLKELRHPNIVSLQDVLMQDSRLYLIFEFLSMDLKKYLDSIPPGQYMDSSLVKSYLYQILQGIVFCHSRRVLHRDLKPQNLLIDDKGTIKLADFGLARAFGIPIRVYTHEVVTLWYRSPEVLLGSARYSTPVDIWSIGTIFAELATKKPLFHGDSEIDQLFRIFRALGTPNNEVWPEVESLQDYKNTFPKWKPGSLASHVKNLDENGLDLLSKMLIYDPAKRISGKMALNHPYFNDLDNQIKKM
T1 sequence (P14635 whole entry partner): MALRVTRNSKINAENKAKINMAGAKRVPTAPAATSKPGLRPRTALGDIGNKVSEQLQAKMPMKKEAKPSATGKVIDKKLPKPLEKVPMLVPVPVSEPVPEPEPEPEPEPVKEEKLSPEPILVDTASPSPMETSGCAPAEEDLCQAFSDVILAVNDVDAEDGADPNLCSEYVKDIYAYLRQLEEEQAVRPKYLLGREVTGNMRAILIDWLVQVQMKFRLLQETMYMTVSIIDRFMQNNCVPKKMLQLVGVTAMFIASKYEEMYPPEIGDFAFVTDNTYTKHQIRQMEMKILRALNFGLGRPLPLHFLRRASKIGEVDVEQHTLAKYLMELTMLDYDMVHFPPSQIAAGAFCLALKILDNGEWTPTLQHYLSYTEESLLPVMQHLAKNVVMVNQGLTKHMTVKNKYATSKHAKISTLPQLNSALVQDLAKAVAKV
Test: Cyclin B1-CDK1 kinase inhibition test
Assay type: biochemical
Conditions: not given
Summary of the method: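 Baculovirus-expressed CDK1/cyclin B1 phosphorylated histone H1 with ATP mix containing 0.045 mM ATP plus ^33P-ATP for 30 min at 30 °C. Protein was precipitated with TCA and filter-bound radioactivity read by scintillation counting. Olomoucin at 30 and 300 μM final served as internal control.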

SMILES | IC50
CN1CCC(CNc2nc(Nc3ccc(Cl)c(Cl)c3)ncc2C(F)(F)F)CC1 [Example 1(030)] | < 100 nM

Same assay, conditions: CDK1 tests (Example 13); recombinant cyclin B1/CDK1, substrate histone H1; read-out: CDK1/cyclinB1 IC50 value

SMILES | IC50
N#Cc1ccc(Nc2ncc([N+](=O)[O-])c(N3CCc4[nH]cnc4C3)n2)cc1 [Example 1(032), 2-(4-cyano-phenylamino)-4-(1,4,6,7-tetrahydro-imidazo[4,5-c]pyridin-5-yl)-5-nitro-pyrimidine] | < 100 nM
CC(=O)NCCNc1nc(Nc2ccc(-c3nn[nH]n3)cc2)ncc1C(F)(F)F [Example 2(046), N-(2-{2-[4-(2H-Tetrazol-5-yl)-phenylamino]-5-trifluoromethyl-pyrimidin-4-ylamino}-ethyl)-acetamide] | < 100 nM
Cn1ncc2ccc(Nc3ncc(C(F)(F)F)c(NCCCNC(=O)Cc4ccccc4)n3)cc21 [Example 7(021), N-{3-[2-(1-methyl-1H-indazol-6-ylamino)-5-trifluoromethyl-pyrimidin-4-ylamino]-propyl}-2-phenyl-acetamide] | < 100 nM
CC(=O)NCCNc1nc(Nc2ccc(Br)c(Cl)c2)ncc1C(F)(F)F [Example 2(014), 2-(4-bromo-3-chloro-phenylamino)-4-(2-acetylamino-ethylamino)-5-trifluoromethyl-pyrimidine] | < 100 nM
NC1CCC(Nc2nc(Nc3ccc(Cl)c(Cl)c3)ncc2C(F)(F)F)CC1 (stereo not drawn) [Example 1(109), 2-(3,4-dichlorophenylamino)-4-(4-amino-cyclohexylamino)-5-trifluoromethyl-pyrimidine] | < 100 nM
CC(=O)NC(C)(C)CNc1nc(Nc2ccc(S(=O)(=O)N3CCOCC3)cc2)ncc1C(F)(F)F [Example 1(685), N-(1,1-dimethyl-2-{2-[4-(morpholine-4-sulphonyl)-phenylamino]-5-trifluoromethyl-pyrimidin-4-ylamino}-ethyl)-acetamide] | < 100 nM
NC(=O)CCNc1nc(Nc2ccc(Cl)c(Cl)c2)ncc1C(F)(F)F [Example 1(025), 2-(3,4-dichloro-phenylamino)-4-(2-aminocarbonyl-1-ethylamino)-5-trifluoromethyl-pyrimidine] | < 100 nM
FC(F)(F)c1cnc(Nc2ccc3ccccc3c2)nc1N1CCc2[nH]cnc2C1 [Example 1(152), 2-(2-naphthylamino)-4-(1,4,6,7-tetrahydro-imidazo[4,5-c]pyridin-5-yl)-5-trifluoromethyl-pyrimidine] | < 100 nM
FC(F)(F)c1cnc(Nc2ccc(Cl)cc2)nc1N1CCc2[nH]cnc2C1 [Example 1(004), 2-(4-chlorophenylamino)-4-(1,4,6,7-tetrahydro-imidazo[4,5-c]pyridin-5-yl)-5-trifluoromethyl-pyrimidine] | < 100 nM
CC(=O)NCCNc1nc(Nc2ccc(S(=O)(=O)N3CCN(C)CC3)cc2)ncc1C(F)(F)F [Example 2(058), N-(2-{2-[4-(4-Methyl-piperazin-1-sulphonyl)-phenylamino]-5-trifluoromethyl-pyrimidin-4-ylamino}-ethyl)-acetamide] | < 100 nM
O=C(O)c1ccc(Nc2ncc(C(F)(F)F)c(NCCCN3CCCC3=O)n2)cc1 [Example 1(021), 2-(4-carboxy-phenylamino)-4-(3-(2-oxo-pyrrolidin-1-yl)-propyl-1-amino)-5-trifluoromethyl-pyrimidine] | < 100 nM
Cn1ncc2ccc(Nc3ncc(C(F)(F)F)c(NCCCNS(=O)(=O)c4ccc(F)cc4)n3)cc21 [Example 7(012), 4-fluoro-N-{3-[2-(1-methyl-1H-indazol-6-ylamino)-5-trifluoromethyl-pyrimidin-4-ylamino]-propyl}-benzensulphonamide] | < 100 nM
CC(=O)NCCCNc1nc(Nc2ccc(C(N)=O)cc2)ncc1C(F)(F)F [Example 7(027), 4-[4-(3-acetylamino-propylamino)-5-trifluoromethyl-pyrimidin-2-ylamino]-benzamide] | < 100 nM
CC(=O)NCCNc1nc(Nc2cccc(NS(=O)(=O)c3ccccc3)c2)ncc1C(F)(F)F [Example 10(015), N-(2-[2-(3-phenylsulphonylamido-phenylamino)-5-trifluoromethyl-pyrimidin-4-ylamino]-ethyl)-acetamide] | < 100 nM
FC(F)(F)c1cnc(Nc2ccccc2)nc1N1CCc2[nH]cnc2C1 [Example 1(118), 2-phenylamino-4-(1,4,6,7-tetrahydro-imidazo[4,5-c]pyridin-5-yl)-5-trifluoromethyl-pyrimidine] | < 100 nM
CC(=O)NCCNc1nc(Nc2ccc(S(=O)(=O)N3CCOCC3)cc2)ncc1C(F)(F)F [Example 2(057), N-(2-{2-[4-(Morpholin-4-sulphonyl)-phenylamino]-5-trifluoromethyl-pyrimidin-4-ylamino}-ethyl)-acetamide] | < 100 nM
O=C1CCCN1CCCNc1nc(Nc2ccc(Cl)cc2)ncc1C(F)(F)F [Example 1(011), 2-(4-chlorophenylamino)-4-(3-(2-oxo-pyrrolidin-1-yl)-propyl-1-amino)-5-trifluoromethyl-pyrimidine] | < 100 nM

SMILES | IC50
CC(=O)NCCNc1nc(Nc2ccc(C(=O)NCc3cc(F)cc(F)c3)cc2)ncc1C(F)(F)F [Example 8(026), 4-[4-(2-acetylamino-ethylamino)-5-trifluoromethyl-pyrimidin-2-ylamino]-N-(3,5-difluorobenzyl)-benzamide] | < 100 nM
O=C1NCCN1CCNc1nc(Nc2ccc(S(=O)(=O)N3CCOCC3)cc2)ncc1C(F)(F)F [Example 2(051), 1-(2-{2-[4-(Morpholin-4-sulphonyl)-phenylamino]-5-trifluoromethyl-pyrimidin-4-ylamino}-ethyl)-imidazolidin-2-one] | < 100 nM
O=C1CCCN1CCCNc1nc(Nc2ccc3ccccc3c2)ncc1C(F)(F)F [Example 1(003), 2-(2-naphthylamino)-4-(3-(2-oxo-pyrrolidin-1-yl)-propyl-1-amino)-5-trifluoromethyl-pyrimidine] | < 100 nM
CC(CC(=O)O)Nc1nc(Nc2ccc(Cl)c(Cl)c2)ncc1C(F)(F)F (stereo not drawn) [Example 1(388), 2-(3,4-dichlorophenylamino)-4-(1-carboxy-2-propylamino)-5-trifluoromethyl-pyrimidine] | < 100 nM
O=C(O)CCc1ccc(Nc2ncc(C(F)(F)F)c(NCCc3cccc(O)c3)n2)cc1 [Example 1(046), 2-(4-(2-carboxy-1-ethyl)-phenylamino)-4-(2-(3-hydroxyphenyl)-1-ethyl-amino)-5-trifluoromethyl-pyrimidine] | < 100 nM
CN(C)[C@H]1CC[C@H](Nc2nc(Nc3ccc(C(=O)O)cc3)ncc2[N+](=O)[O-])CC1 [Example 1(018), 2-(4-carboxy-phenylamino)-4-(trans-4-dimethylamino-cyclohexylamino)-5-nitro-pyrimidine] | < 100 nM
O=C(O)c1ccc(Nc2ncc(C(F)(F)F)c(N3CCc4[nH]cnc4C3)n2)cc1 [Example 1(017), 2-(4-carboxy-phenylamino)-4-(1,4,6,7-tetrahydro-imidazo[4,5-c]pyridin-5-yl)-5-trifluoromethyl-pyrimidine] | < 100 nM
CC(=O)NCC(C)(C)Nc1nc(Nc2ccc(S(=O)(=O)N3CCOCC3)cc2)ncc1C(F)(F)F [Example 1(585), N-(2-Methyl-2-{2-[4-(morpholin-4-sulphonyl)-phenylamino]-5-trifluoromethyl-pyrimidin-4-ylamino}-propyl)-acetamide] | < 100 nM
CC(=O)NCCNc1nc(Nc2ccc(C(=O)N(C)C)c(Cl)c2)ncc1C(F)(F)F [Example 8(007), 4-[4-(2-acetylamino-ethylamino)-5-trifluoromethyl-pyrimidin-2-ylamino]-2-chloro-N,N-dimethyl-benzamide] | < 100 nM
NCC1CCN(c2nc(Nc3cccc(Br)c3)ncc2[N+](=O)[O-])CC1 [Example 1(042), 2-(3-bromo-phenylamino)-4-(4-aminomethyl-piperidin-1-yl)-5-nitro-pyrimidine] | < 100 nM
CC(=O)NCCNc1nc(Nc2ccc3[nH]ncc3c2)ncc1C(F)(F)F [Example 2(045), N-{2-[2-(1H-Indazol-5-ylamino)-5-trifluoromethyl-pyrimidin-4-ylamino]-ethyl}-acetamide] | < 100 nM
O=[N+]([O-])c1cnc(Nc2ccc(Br)cc2)nc1N1CCc2[nH]cnc2C1 [Example 1(116), 2-(4-bromophenylamino)-4-(1,4,6,7-tetrahydro-imidazo[4,5-c]pyridin-5-yl)-5-nitro-pyrimidine] | < 100 nM
FC(F)(F)c1cnc(Nc2ccc(Cl)c(Cl)c2)nc1NCCN1CCOCC1 [Example 1(104), 2-(3,4-dichloro-phenylamino)-4-(2-morpholino-1-ethylamino)-5-trifluoromethyl-pyrimidine] | < 100 nM
OCCCCCNc1nc(Nc2ccc(Cl)c(Cl)c2)ncc1C(F)(F)F [Example 1(045), 2-(3,4-dichloro-phenylamino)-4-(5-hydroxy-1-pentylamino)-5-trifluoromethyl-pyrimidine] | < 100 nM
CNC(=O)c1ccc(Nc2ncc(C(F)(F)F)c(NCCNC(C)=O)n2)cc1Cl [Example 8(003), 4-[4-(2-acetylamino-ethylamino)-5-trifluoromethyl-pyrimidin-2-ylamino]-2-chloro-N-methyl-benzamide] | < 100 nM
O=C1CCCN1CCCNc1nc(Nc2cc(Cl)cc(Cl)c2)ncc1C(F)(F)F [Example 1(049), 2-(3,5-dichloro-phenylamino)-4-(3-(2-oxo-pyrrolidin-1-yl)-propyl-1-amino)-5-trifluoromethyl-pyrimidine] | < 100 nM
